Laboratory results from ChEMBL document CHEMBL5233250, “Factor XIIIa inhibitors as potential novel drugs for venous thromboembolism” (Eur J Med Chem, 2020).
Each block holds one compound with its values, some of them ahead of it. Numbered stars: 1 amine (or outer) side, 2 acyl side, 3 side chain; on linkers, the order of the positions; unused ones are H or OH. Square brackets hold non-standard residues; d marks the D form. Peptide text beside a SMILES is read from it. * marks the point of attachment. ξ: configuration not given here. X2 = COC(=O)/C=C/CC[C@H](N[*:1])C(=O)[*:2]; Ile(3ξ) = CCC(C)[C@H](N)C(=O)O; X4 = CCOC(=O)c1nc(C(=O)*)cs1; X3 = O=C(c1nc2ccccc2[nH]1)*; Nle = CCCC[C@H](N)C(=O)O; X1 = Cc1nc(C(=O)*)cs1

Assays:
[1] = target: T1, Coagulation factor XIII A chain (Homo sapiens) (UniProt P00488); assay: Binding affinity to human plasma coagulation factor XIIIa assessed as rate constant in presence of GSH by DTNB based UV-fluorescence assay; format: cell-free
T1 sequence (whole entry): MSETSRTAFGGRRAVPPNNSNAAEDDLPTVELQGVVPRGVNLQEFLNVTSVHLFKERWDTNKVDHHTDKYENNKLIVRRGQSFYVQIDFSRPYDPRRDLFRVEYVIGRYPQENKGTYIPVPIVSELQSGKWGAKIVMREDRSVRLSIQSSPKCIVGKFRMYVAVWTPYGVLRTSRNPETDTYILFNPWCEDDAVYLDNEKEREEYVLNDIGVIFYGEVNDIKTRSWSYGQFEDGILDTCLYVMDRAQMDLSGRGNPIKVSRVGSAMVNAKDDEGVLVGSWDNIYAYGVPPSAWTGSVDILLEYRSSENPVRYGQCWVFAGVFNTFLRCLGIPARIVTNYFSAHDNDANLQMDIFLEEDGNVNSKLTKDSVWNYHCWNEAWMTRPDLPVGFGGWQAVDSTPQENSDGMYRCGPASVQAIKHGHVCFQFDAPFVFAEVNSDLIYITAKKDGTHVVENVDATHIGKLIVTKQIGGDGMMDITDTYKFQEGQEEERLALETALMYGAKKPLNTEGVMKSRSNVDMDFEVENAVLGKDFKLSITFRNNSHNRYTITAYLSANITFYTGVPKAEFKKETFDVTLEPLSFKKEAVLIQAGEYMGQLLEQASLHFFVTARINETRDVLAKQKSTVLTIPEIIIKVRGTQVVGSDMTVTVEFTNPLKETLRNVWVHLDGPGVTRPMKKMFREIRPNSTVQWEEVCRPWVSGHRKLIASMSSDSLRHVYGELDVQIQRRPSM

[2] = Ratio of rate constant for human plasma coagulation factor XIIIa to rate constant for Glutathione (unknown origin)
[3] = target: T2, Coagulation factor XIII A chain (Homo sapiens, UniProt P00488); assay: Inhibition of human plasma coagulation factor XIIIa by fluorescence spectrophotometeric assay; format: cell-free
T2 sequence (P00488 whole entry): T1 sequence (whole entry)

[4] = target: T2, Coagulation factor XIII A chain; assay: Inhibition of human recombinant coagulation factor XIIIa
[5] = target: T3, Coagulation factor XIII A chain (Bos taurus) (UniProt P12260); assay: Inhibition of bovine plasma coagulation factor XIIIa assessed as threshold concentration by measuring insoluble fibrin per total fibrin incubated for 30 mins in presence of bovine fibrin by biuret method; format: cell-free
T3 sequence (whole entry): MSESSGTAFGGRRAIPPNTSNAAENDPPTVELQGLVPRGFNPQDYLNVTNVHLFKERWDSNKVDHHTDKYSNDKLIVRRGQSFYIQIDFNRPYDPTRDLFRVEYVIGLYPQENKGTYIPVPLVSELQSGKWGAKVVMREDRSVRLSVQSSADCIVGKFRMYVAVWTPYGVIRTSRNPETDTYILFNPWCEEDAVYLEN

[6] = Inhibition of transglutaminase in guinea pig liver assessed as inhibition constant using Z-Gln-Gly as substrate by Michaelis-Menten analysis; format: tissue-based, Cavia porcellus
[7] = target: T2, Coagulation factor XIII A chain; assay: Inhibition of human plasma coagulation factor XIIIa; format: cell-free
[8] = target: T2, Coagulation factor XIII A chain; assay: Inhibition of human coagulation factor XIIIa
Canis familiaris [9] = assay: Antithrombotic activity in Mongrel dog model of electrically-induced coronary artery thrombosis assessed as time to reperfusion at 0.1 mg/kg,iv pre-administered for 15 mins followed by electric impulse stimulation and t-PA and measured after 90 mins; format: functional, Canis lupus familiaris; conditions: time 105 min, 1.75 h
Canis familiaris [10] = assay: Antithrombotic activity in Mongrel dog model of electrically-induced coronary artery thrombosis assessed as re-occlusion rate at 0.1 mg/kg,iv pre-administered for 15 mins followed by electric impulse stimulation and t-PA and measured after 90 mins; format: functional, Canis lupus familiaris; conditions: time 105 min, 1.75 h
Canis familiaris [11] = assay: Antithrombotic activity in Mongrel dog model of electrically-induced coronary artery thrombosis assessed as time to occlusion at 0.1 mg/kg,iv pre-administered for 15 mins followed by electric impulse stimulation and t-PA and measured after 90 mins; format: functional, Canis lupus familiaris; conditions: time 105 min, 1.75 h
Canis familiaris [12] = assay: Antithrombotic activity in Mongrel dog model of electrically-induced coronary artery thrombosis assessed as reduction in residual thrombus mass at 0.1 mg/kg,iv pre-administered for 15 mins followed by electric impulse stimulation and t-PA and measured after 90 mins; format: functional, Canis lupus familiaris; conditions: time 105 min, 1.75 h
[13] = Half life in New Zealand White rabbit at iv dosed upto 8 hrs by HPLC method; format: ADME, organism-based, Oryctolagus cuniculus; conditions: in vivo
[14] = Total clearance in New Zealand White rabbit at iv dosed upto 8 hrs by HPLC method; format: ADME, organism-based, Oryctolagus cuniculus; conditions: in vivo
[15] = Plasma concentration in New Zealand White rabbit at iv dosed upto 8 hrs by HPLC method; format: ADME, organism-based, Oryctolagus cuniculus
[16] = target: T1, Coagulation factor XIII A chain (Homo sapiens); assay: Inhibition of human coagulation factor XIIIa assessed as maximal efficacy upto 20 nM
Homo sapiens [17] = organism: Homo sapiens; assay: Selectivity index, ratio of IC50 for inhibition of human coagulation factor XIIIa to IC50 for inhibition of human Factor Xa
[18] = Selectivity index, ratio of IC50 for inhibition of human coagulation factor XIIIa to IC50 for inhibition of papain (unknown origin)
Homo sapiens [19] = organism: Homo sapiens; assay: Selectivity index, ratio of IC50 for inhibition of human coagulation factor XIIIa to IC50 for inhibition of human alpha-thrombin
[20] = target: T1, Coagulation factor XIII A chain (Homo sapiens); assay: Inhibition of human coagulation factor XIIIa assessed as enzyme residual activity at 100 uM in presence of polybrene by Spectrofluorometric assay
[21] = target: T1, Coagulation factor XIII A chain (Homo sapiens); assay: Inhibition of human coagulation factor XIIIa assessed as maximal inhibition of factor 13a mediated fibrin polymerization at 5 to 500 uM incubated for 24 hrs by SDS-PAGE analysis; conditions: dose 5-500 µM
[22] = target: T2, Coagulation factor XIII A chain; assay: Inhibition of human coagulation factor XIIIa assessed as inhibition of factor 13a mediated crosslinking of fibronectin-collagen incubated for 2 hrs by SDS-PAGE analysis
[23] = target: T4, Protein-glutamine gamma-glutamyltransferase (Homo sapiens, UniProt P21980); assay: Inhibition of tissue transglutaminase (unknown origin); format: tissue-based
T4 sequence (P21980 whole entry): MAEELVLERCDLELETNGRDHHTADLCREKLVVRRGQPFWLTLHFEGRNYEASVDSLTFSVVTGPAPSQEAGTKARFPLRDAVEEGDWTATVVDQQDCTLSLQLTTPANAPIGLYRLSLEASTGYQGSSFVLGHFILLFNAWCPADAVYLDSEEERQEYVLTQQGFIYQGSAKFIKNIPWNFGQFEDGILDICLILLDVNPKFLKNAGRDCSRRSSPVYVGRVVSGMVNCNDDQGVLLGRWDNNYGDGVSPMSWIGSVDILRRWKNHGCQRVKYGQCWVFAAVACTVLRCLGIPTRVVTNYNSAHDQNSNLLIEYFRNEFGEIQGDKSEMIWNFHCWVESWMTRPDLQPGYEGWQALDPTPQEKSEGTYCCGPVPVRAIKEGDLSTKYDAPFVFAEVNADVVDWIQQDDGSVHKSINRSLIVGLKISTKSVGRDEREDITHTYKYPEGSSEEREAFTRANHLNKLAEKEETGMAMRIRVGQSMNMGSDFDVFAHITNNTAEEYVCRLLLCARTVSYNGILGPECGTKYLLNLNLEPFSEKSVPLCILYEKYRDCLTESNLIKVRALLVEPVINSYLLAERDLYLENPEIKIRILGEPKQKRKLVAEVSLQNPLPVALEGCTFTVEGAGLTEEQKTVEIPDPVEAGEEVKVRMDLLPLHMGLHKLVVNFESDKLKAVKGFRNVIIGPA

IC50 [3]: 1.9 µM
Compound: O=C(O)CCCCCc1cc1=O

IC50 [3]: 0.61 µM
Compound: O=C(O)CCCCCCCc1cc1=O

Ki [6]: 49 µM
Compound: NCCCCCNC(=S)Nc1ccccc1

Activity [5]: 50 µg/mL
Compound: Cc1ccc(S(=O)(=O)NCCCCCCCCCCC(=O)CCl)cc1

IC50 [3]: 0.026 µM
Compound: O=C(CCCCCCCc1cc1=O)NCCc1ccccc1

IC50 [3]: 0.31 µM
Compound: O=C(O)CCCCCCCCCCc1cc1=O

half-life [13]: 7.8 min | clearance [14]: > 63.3 mL/min/kg | concentration at 8 h [15]: 80 µM
Compound: O=[N+]([O-])c1ccccc1S(=O)(=O)NCCCCCCNc1nsc2nccn12

Activity [5]: 0.8 µg/mL
Compound: Cc1ccc(C(=O)NCCCCCC(=O)CCl)cc1

Activity [5]: 0.2 µg/mL
Compound: O=C(CCl)CCCCCNS(=O)(=O)c1ccc(Cl)cc1

More lines, now with the values behind:

Compound: CC(=O)CSc1n(C)c(C)c(C)[n+]1C
K [1]: 6.3 10^4/M/s | Ratio [2]: 3.9 10^4No_unit

Compound: NC(=O)CI
K [1]: 0.8 10^4/M/s | Ratio [2]: 5 10^3No_unit

Compound: CCC(C)[C@H](NC(=O)[C@H](CC(C)C)NC(=O)[C@H](CC/C=C/C(=O)OC)NC(=O)c1nc2ccccc2[nH]1)C(=O)N[C@@H](CC(C)C)C(=O)N1CCC[C@H]1C(=O)N[C@@H](Cc1c[nH]c2ccccc12)C(=O)N1CCC[C@H]1C(N)=O (stereo partly drawn) (X3-[X2]L[Ile(3ξ)]LPWP-NH2)
IC50 [4]: 0.102 µM

Compound: Cc1ccc(S(=O)(=O)NCCCCNC(=O)CCl)cc1
Activity [5]: 15 µg/mL

Compound: Cc1c(C)[n+](C)c(SCC(=O)CSc2nnnn2C)n1C
K [1]: 4.9 10^4/M/s | Ratio [2]: 4.1 10^6No_unit

Compound: Cc1ccc(S(=O)(=O)N(C)CCCCCC(=O)CCl)cc1
Activity [5]: 0.1 µg/mL

Compound: Cc1ccc(S(=O)(=O)NCCCCCC(=O)CCl)cc1
Activity [5]: 0.05 µg/mL

Compound: Cc1ccc(S(=O)(=O)NCCCCOC(=O)CCl)cc1
Activity [5]: 40 µg/mL

Compound: CC(=O)CSc1n(C)cc[n+]1C
K [1]: 0.35 10^4/M/s | Ratio [2]: 1.9 10^6No_unit

Compound: CC(=O)CSc1n(C)c(-c2ccccc2)c(-c2ccccc2)[n+]1C
IC50 [7]: 0.35 µM

Compound: CC(=O)NCCc1ccc(O)cc1
IC50 [8]: 0.2 µM

Compound: CCOC(=O)c1nc(C(=O)N[C@@H](CC/C=C/C(=O)OC)C(=O)N[C@@H](CC(C)C)C(=O)N[C@H](C(=O)N[C@@H](CC(C)C)C(=O)N2CCC[C@H]2C(=O)N[C@@H](Cc2c[nH]c3ccccc23)C(=O)N2CCC[C@H]2C(N)=O)C(C)CC)cs1 (stereo partly drawn) (X4-[X2]L[Ile(3ξ)]LPWP-NH2)
IC50 [4]: 0.029 µM

Compound: CC(=O)CSc1n[n+]2c(C)csc2s1
Time (Canis familiaris [9]): 16.4 min | Activity (Canis familiaris [10]): 75% | Time (Canis familiaris [11]): 44.4 min | Activity (Canis familiaris [12]): 1.7 mg

Compound: O=c1c(OS(=O)(=O)O)c(-c2ccc(OS(=O)(=O)O)c(OS(=O)(=O)O)c2)oc2cc(OS(=O)(=O)O)cc(OCCOc3cc(-c4oc5cc(OS(=O)(=O)O)cc(OCCOc6cc(OS(=O)(=O)O)cc7oc(-c8ccc(OS(=O)(=O)O)c(OS(=O)(=O)O)c8)c(OS(=O)(=O)O)c(=O)c67)c5c(=O)c4OS(=O)(=O)O)ccc3OS(=O)(=O)O)c12
Efficacy [16]: 98% | Ratio IC50 (Homo sapiens [17]): 9 | Ratio IC50 [18]: 27 | Ratio IC50 (Homo sapiens [19]): 26 | Activity [20]: 85% | Efficacy [21]: 100%

Compound: NCCCCNCCCN [SPERMIDINE]
IC50 [22]: 100 µM

Compound: NCCCNCCCCNCCCN [SPERMINE]
IC50 [22]: 100 µM

Compound: CCCC[C@H](NC(=O)[C@H](CC/C=C/C(=O)OC)NC(=O)c1csc(C)n1)C(=O)N[C@H](C(=O)N[C@@H](CC(C)C)C(=O)N1CCC[C@H]1C(=O)N[C@@H](Cc1c[nH]c2ccccc12)C(N)=O)C(C)CC (stereo partly drawn) (X1-[X2][Nle][Ile(3ξ)]LPW-NH2)
IC50 [4]: 0.139 µM

Compound: C[C@@H]1CCC/C=C\C(=O)Cc2cc(O)cc(O)c2C(=O)O1
IC50 [23]: 3.1 µM

Compound: O=C1C(OS(=O)(=O)O)=C(c2ccc(OS(=O)(=O)O)c(OCCCOc3cc(OS(=O)(=O)O)cc4oc(-c5ccc(OS(=O)(=O)O)c(OS(=O)(=O)O)c5)c(OS(=O)(=O)O)c(=O)c34)c2)OC2C=C(OS(=O)(=O)O)C=C(OCCCOc3cc(OS(=O)(=O)O)cc4oc(-c5ccc(OS(=O)(=O)O)c(OS(=O)(=O)O)c5)c(OS(=O)(=O)O)c(=O)c34)C12 (stereo not drawn)
Efficacy [16]: 93% | IC50 [8]: 118 µM
